Among the data in patent EP0880540B1, “17-BETA-CYCLOPROPYL(AMINO/OXY) 4-AZA STEROIDS AS ACTIVE INHIBITORS OF TESTOSTERONE 5-ALPHA-REDUCTASE AND C17-20-LYASE” (Aventis Pharmaceuticals Inc., priority 1996, dated 1997) are inhibition values, retold here.

For this experiment, the target named is T1, nude mouse testicular C17,20 lyase (Mus musculus, UniProt P27786).
T1 construct: from tissue; host or cells: testes of male athymic nude mice (Harlan Laboratories), 10,000 x g supernatant of homogenate
T1 sequence (P27786 1-507): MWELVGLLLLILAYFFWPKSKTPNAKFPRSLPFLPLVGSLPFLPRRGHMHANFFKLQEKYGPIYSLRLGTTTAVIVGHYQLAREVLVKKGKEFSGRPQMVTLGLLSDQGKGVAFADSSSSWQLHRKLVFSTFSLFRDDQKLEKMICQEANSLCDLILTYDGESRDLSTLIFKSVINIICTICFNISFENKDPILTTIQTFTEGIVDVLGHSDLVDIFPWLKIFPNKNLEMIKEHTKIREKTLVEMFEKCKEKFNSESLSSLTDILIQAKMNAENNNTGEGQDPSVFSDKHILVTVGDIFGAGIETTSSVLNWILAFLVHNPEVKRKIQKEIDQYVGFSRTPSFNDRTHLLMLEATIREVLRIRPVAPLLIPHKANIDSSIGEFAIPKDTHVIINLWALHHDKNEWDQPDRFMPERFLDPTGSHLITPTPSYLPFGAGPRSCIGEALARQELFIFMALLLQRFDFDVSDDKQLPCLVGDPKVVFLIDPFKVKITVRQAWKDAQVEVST
Briefly: Ex vivo inhibition of C17,20 lyase in nude mouse testes after oral dosing. The arrangement: species or system male athymic nude mice. To be noted: 4 hours after oral dosing. On the procedure: Ex vivo inhibition of C17,20 lyase: MDL 103,432 was tested for ex vivo inhibition of rat and nude mouse testes lyase. Male Copenhagen rats and male athymic nude mice obtained from Harlan Laboratories, Indianapolis, IN, were divided into groups of 5 to 6 based on weight. Average weight was 100-140 g each for rats and 18-35 g each for the mice. Prior to oral dosing, animals were fasted overnight. Test compound was prepared by micronization in a lecithin vehicle using a glass Teflon® pestle-type homogenizer. The compound was brought to volume using lecithin so as to administer 0.5 mL per 100 g animal. Rats and nude mice were given vehicle only (controls) or vehicle plus test compounds peros. Rats were also given the compound in lecithin or lecithin alone subcutaneously. Each group consisted of 5-6 animals. At a specified time after dosing, the animals were anesthetized with CO2 gas, sacrificed by cervical dislocation, testes were excised, capsules were removed, and the tissue was weighed. […] Assays were terminated, extracted and analyzed as described above except that carrier steroids were 17α-hydroxyprogesterone, androst-4-ene-dione, and testosterone. […] Activity of test compound was expressed as percent inhibition relative to the control and was the mean of each group of treated animals.

Structures are written as SMILES.

The inhibition is the drop in the measured response relative to a control, in per cent. A high value points to a response far below the control. For the setting “30 mg/kg”, `CC12CCC3C(CC[C@H]4NC(=O)CCC34C)C1CC[C@@H]2OC1CC1` (stereo partly drawn) [MDL 103,432, 17β-Cyclopropyloxy-4-aza-5α-androstan-3-one] displayed an inhibition at 30 mg/kg of 88%. This molecule came in with an inhibition at 100 mg/kg (100 mg/kg) of 96%.
